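Where inhibition never reached the appropriate level, the endpoint shown equals the highest concentration tested. Otherwise, values were interpolated linearly from a five-concentration, 48-hour dose response in 96-well plates. The concentration for 50% growth inhibition is given as GI50.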 Active and inactive are the calls of the source. Rule as the data show it: active = GI50 up to about 1.1 µM and inactive = higher.
Tests used:
Test in all cases: inhibition of tumour cell growth, NCI panel, 48 h
786-0 = system: 786-0
A549 = system: A549
ACHN = system: ACHN
CAKI-1 = system: CAKI-1
CCRF-CEM = system: CCRF-CEM
HCT-116 = system: HCT-116
HL-60 = system: HL-60
IGROV-1 = system: IGROV-1
Malme-3M = system: Malme-3M
NCI-H23 = system: NCI-H23
NCI-H460 = system: NCI-H460
OVCAR-8 = system: OVCAR-8
SF-268 = system: SF-268
SK-MEL-28 = system: SK-MEL-28
SNB-19 = system: SNB-19
U-251 = system: U-251
SN12C = system: SN12C
RXF 393 = system: RXF 393

Measured: GI50

COc1ccc(C(=O)OCC2OC(n3cnc4c(=S)nc[nH]c43)C(OC(=O)c3ccc(OC)cc3)C2OC(=O)c2ccc(OC)cc2)cc1 (centres undefined)
inactive: 786-0 15.3 µM | A549 > 100 µM | ACHN 76.9 µM | CAKI-1 48.6 µM | CCRF-CEM 8.47 µM | HCT-116 10.5 µM | HL-60 26.2 µM | IGROV-1 57 µM | Malme-3M 32.2 µM | NCI-H23 39.7 µM | NCI-H460 43.1 µM | OVCAR-8 28.5 µM | SF-268 30.1 µM | SK-MEL-28 > 100 µM | SNB-19 > 100 µM | U-251 > 100 µM

O=C(O)CSc1ccc2nc3ccccc3c(O)c2c1
inactive: 786-0 > 100 µM | A549 > 100 µM | ACHN > 100 µM | CAKI-1 > 100 µM | CCRF-CEM > 100 µM | HCT-116 > 100 µM | HL-60 > 100 µM | IGROV-1 > 100 µM | Malme-3M > 100 µM | NCI-H23 > 100 µM | NCI-H460 > 100 µM | OVCAR-8 > 100 µM | SF-268 > 100 µM | SK-MEL-28 > 100 µM | SN12C > 100 µM | SNB-19 > 100 µM | U-251 > 100 µM

CCOC(=O)C(=O)Nc1cc(Cl)ccc1Cl
inactive: 786-0 > 100 µM | A549 > 100 µM | ACHN > 100 µM | CAKI-1 > 100 µM | CCRF-CEM > 100 µM | HCT-116 > 100 µM | HL-60 > 100 µM | IGROV-1 > 100 µM | Malme-3M > 100 µM | NCI-H23 > 100 µM | NCI-H460 > 100 µM | OVCAR-8 > 100 µM | SF-268 > 100 µM | SK-MEL-28 > 100 µM | SN12C > 100 µM | SNB-19 > 100 µM | U-251 > 100 µM

CSCC[C@@H]1C(=O)N(C)[C@H](C(C)(C)C)N1C(=O)c1ccccc1
inactive: A549 > 100 µM | CCRF-CEM > 100 µM | HCT-116 > 100 µM | HL-60 > 100 µM | IGROV-1 > 100 µM | Malme-3M > 100 µM | NCI-H23 > 100 µM | NCI-H460 > 100 µM | OVCAR-8 > 100 µM | RXF 393 > 100 µM | SF-268 > 100 µM | SK-MEL-28 > 100 µM | SN12C > 100 µM | SNB-19 > 100 µM | U-251 > 100 µM

Cc1cc(C)nc(NS(=O)(=O)c2ccc(Nc3c4ccccc4nc4c(C(=O)Nc5ccc(S(=O)(=O)Nc6cc(C)on6)cc5)cccc34)cc2)n1
inactive: 786-0 18.5 µM | A549 34.7 µM | ACHN 35.2 µM | CAKI-1 21.9 µM | HCT-116 16 µM | HL-60 22.8 µM | IGROV-1 30.4 µM | Malme-3M 24.2 µM | NCI-H23 22.1 µM | NCI-H460 25.1 µM | OVCAR-8 18.4 µM | RXF 393 20.9 µM | SF-268 24.2 µM | SK-MEL-28 23.6 µM | SN12C 24.5 µM | SNB-19 24.2 µM | U-251 19.8 µM

COc1ccc(-c2ccc(CC(=O)O)cc2)cc1OC
inactive: 786-0 > 100 µM | A549 > 100 µM | ACHN > 100 µM | CAKI-1 > 100 µM | CCRF-CEM > 100 µM | HCT-116 > 100 µM | HL-60 > 100 µM | Malme-3M > 100 µM | NCI-H23 > 100 µM | NCI-H460 > 100 µM | OVCAR-8 > 100 µM | SF-268 > 100 µM | SK-MEL-28 > 100 µM | SN12C > 100 µM | SNB-19 > 100 µM | U-251 > 100 µM

CCCCCCCC(=O)OC[C@@H](C[As](=O)(O)O)OC(=O)CCCCCCC
inactive: 786-0 12.1 µM | A549 3.73 µM | ACHN 12.7 µM | CCRF-CEM 1.88 µM | HCT-116 10.6 µM | HL-60 2.98 µM | IGROV-1 5.21 µM | Malme-3M 14.1 µM | NCI-H23 12.9 µM | OVCAR-8 13.5 µM | RXF 393 4.97 µM | SF-268 5.85 µM | SK-MEL-28 13.5 µM | SN12C 11.2 µM | SNB-19 14.2 µM | U-251 5.74 µM

O=C1c2ccccc2C(=O)C1(O)c1c[nH]c2ccccc12
inactive: 786-0 > 100 µM | A549 > 100 µM | CAKI-1 > 100 µM | CCRF-CEM > 100 µM | HCT-116 > 100 µM | HL-60 > 100 µM | IGROV-1 > 100 µM | Malme-3M > 100 µM | NCI-H23 > 100 µM | NCI-H460 > 100 µM | OVCAR-8 > 100 µM | SF-268 > 100 µM | SK-MEL-28 > 100 µM | SNB-19 > 100 µM | U-251 > 100 µM

From ChEMBL document CHEMBL1201862, “PubChem BioAssay data set” (2004)
